Reference: ChEMBL document CHEMBL1128637, “Enantioselective synthesis of inositols as intermediates for the preparation of deoxy-inositol phosphates from D-galactose” (Bioorg Med Chem Lett, 1995)

Columns and labels:
[1] = target: T1, Type 1 InsP3 receptor isoform S2 (Sus scrofa, UniProt P79248); assay: Binding affinity was determined by its ability to displace specifically bound […] from purified porcine cerebellum membrane.; assay type: tissue-based
[2] = target: T1, Type 1 InsP3 receptor isoform S2; assay: Binding affinity of compound was determined by its ability to displace specifically bound […] from purified porcine cerebellum membrane; assay type: tissue-based

T1 sequence (P79248 whole entry, canonical isoform): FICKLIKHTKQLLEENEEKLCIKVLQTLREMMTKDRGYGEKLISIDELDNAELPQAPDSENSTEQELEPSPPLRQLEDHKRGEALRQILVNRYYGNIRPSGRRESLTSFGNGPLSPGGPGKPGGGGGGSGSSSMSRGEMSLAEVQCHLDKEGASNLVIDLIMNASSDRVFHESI

| IC50 [1] | IC50 [2] | Structure (SMILES) |
| --- | --- | --- |
| Not Active | – | O=P(OCc1ccccc1)(OCc1ccccc1)OC1CC(OP(=O)(OCc2ccccc2)OCc2ccccc2)C2OC3(CCCCC3)OC2C1OCc1ccccc1 (stereo not drawn) |
| Not Active | – | OC1CC(O)C2OC3(CCCCC3)OC2C1O (stereo not drawn) |
| Not Active | – | CO[C@@H]1O[C@@H](CO)[C@@H]2OC3(CCCCC3)O[C@@H]2[C@@H]1O |
| Not Active | – | O[C@H]1[C@@H](O)[C@H](O)C[C@@H](O)[C@H]1O |
| – | 1500 nM | O=P(O)(O)OC1CC(OP(=O)(O)O)C(OP(=O)(O)O)C(O)C1O (stereo not drawn) |
| Not Active | – | C=C1OC(OC)C(OCc2ccccc2)C2OC3(CCCCC3)OC12 (stereo not drawn) |
| Not Active | – | OC1CC(O)C2OC3(CCCCC3)OC2C1OCc1ccccc1 (stereo not drawn) |
| Not Active | – | COC1OC(CBr)C2OC3(CCCCC3)OC2C1O (stereo not drawn) |
| Not Active | – | COC1OC(CBr)C2OC3(CCCCC3)OC2C1OCc1ccccc1 (stereo not drawn) |
| Not Active | – | O=C1CC(O)C(OCc2ccccc2)C2OC3(CCCCC3)OC12 (stereo not drawn) |
| Not Active | – | O=P(OCc1ccccc1)(OCc1ccccc1)OC1CC(OP(=O)(OCc2ccccc2)OCc2ccccc2)C(OP(=O)(OCc2ccccc2)OCc2ccccc2)C2OC3(CCCCC3)OC12 (stereo not drawn) |
| Not Active | – | CO[C@@H]1O[C@H](CO)[C@H](O)[C@H](O)[C@H]1O |
| – | 20 nM | O=P(O)(O)O[C@@H]1[C@H](O)[C@H](O)[C@@H](OP(=O)(O)O)[C@H](OP(=O)(O)O)[C@H]1O [INS(1,4,5)P3] |
